# Data taken from the supplement of paper PMC11061612.
# Assays:
# Experiment in all cases: combination Emax (second highest fraction inhibited in the dose matrix, 72 h); higher = more inhibition; extreme values may be limits of the assay
# [1] = test system: 647-V (Bladder Carcinoma)
# Outline: (§1)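 Cell lines grown in DMEM/F12 or RPMI with 10% FBS were plated in 1536-well plates and held 24 hours at 37°C, 5% CO2 before 72 hours of exposure to two-drug dose matrices, with DMSO typically at 0.2%. CellTiter-Glo 2.0 luminescence gave viability, which was converted to inhibition. Vehicle wells were set to 0 and blank wells to 1. Combination Emax is the second-highest inhibition in the matrix, and Bliss excess is the observed combination effect minus the expected EA + EB − EA·EB, where EA and EB are the single-agent effects.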
# [2] = test system: DOK (Oral Cavity Carcinoma)
# Outline: as §1
# [3] = test system: GDM-1 (Acute Myeloid Leukemia)
# Outline: as §1
# [4] = test system: JHH-6 (Hepatocellular Carcinoma)
# Outline: as §1
# [5] = test system: MEG-01 (Chronic Myelogenous Leukemia)
# Outline: as §1
# [6] = test system: MES-SA (Other Solid Carcinomas)
# Outline: as §1
# [7] = test system: NOMO-1 (Acute Myeloid Leukemia)
# Outline: as §1
# [8] = test system: RCC10RGB (Kidney Carcinoma)
# Outline: as §1
# [9] = test system: SK-LMS-1 (Other Solid Carcinomas)
# Outline: as §1
# [10] = test system: SK-UT-1 (Other Solid Carcinomas)
# Outline: as §1
# [11] = test system: SKN-3 (Head and Neck Carcinoma)
# Outline: as §1
# [12] = test system: SLVL (B-Cell Non-Hodgkin's Lymphoma)
# Outline: as §1
SMILES,combination Emax [1],combination Emax [2],combination Emax [3],combination Emax [4],combination Emax [5],combination Emax [6],combination Emax [7],combination Emax [8],combination Emax [9],combination Emax [10],combination Emax [11],combination Emax [12]
"Cc1c2c(nn1C)CSCc1cc(n(C)n1)CSc1cc(c3ccccc3c1)OCCCc1c(C(=O)O)n(C)c3c-2c(Cl)ccc13 [AZD5991] + CC1(C)CCC(CN2CCN(c3ccc(C(=O)NS(=O)(=O)c4ccc(NCC5CCOCC5)c([N+](=O)[O-])c4)c(Oc4cnc5[nH]ccc5c4)c3)CC2)=C(c2ccc(Cl)cc2)C1 [Venetoclax] (first compound max 1 µM, 7x7, partner max 1 µM)",0.618,0.758,0.999,0.0668,0.837,0.323,0.981,0.221,0.115,0.138,0.15,0.777
"Cc1c2c(nn1C)CSCc1cc(n(C)n1)CSc1cc(c3ccccc3c1)OCCCc1c(C(=O)O)n(C)c3c-2c(Cl)ccc13 [AZD5991] + CCN(CCO)CCCOc1ccc2c(Nc3cc(CC(=O)Nc4cccc(F)c4)[nH]n3)ncnc2c1 [AZD2811] (first compound max 1 µM, 7x7, partner max 1 µM)",0.834,0.883,0.949,0.257,0.758,0.806,0.93,0.292,0.272,0.367,0.271,0.768
"Cc1c2c(nn1C)CSCc1cc(n(C)n1)CSc1cc(c3ccccc3c1)OCCCc1c(C(=O)O)n(C)c3c-2c(Cl)ccc13 [AZD5991] + CN(C)CCCOc1ccc(-c2ccc3ncc4c(c3c2)n(C2CCOCC2)c(=O)n4C)cn1 [AZD0156] (first compound max 1 µM, 7x7, partner max 1 µM)",0.878,0.331,0.549,0.188,0.432,0.384,0.863,0.243,0.205,0.245,0.339,0.425
"Cc1c2c(nn1C)CSCc1cc(n(C)n1)CSc1cc(c3ccccc3c1)OCCCc1c(C(=O)O)n(C)c3c-2c(Cl)ccc13 [AZD5991] + C[C@@H]1COCCN1C2=NC(=NC(=C2)C3(CC3)[S@](=N)(=O)C)C4=C5C=CNC5=NC=C4 [AZD6738] (first compound max 1 µM, 7x7, partner max 10 µM)",0.92,0.633,0.91,0.416,0.931,0.762,0.995,0.43,0.453,0.801,0.687,0.873
"Cc1c2c(nn1C)CSCc1cc(n(C)n1)CSc1cc(c3ccccc3c1)OCCCc1c(C(=O)O)n(C)c3c-2c(Cl)ccc13 [AZD5991] + C[C@@H](Nc1cc(F)cc(F)c1)c1cc(C(=O)N(C)C)cc2c(=O)cc(N3CCOCC3)oc12 [AZD8186] (first compound max 1 µM, 7x7, partner max 3 µM)",0.802,0.459,0.767,0.236,0.416,0.267,0.905,0.557,0.453,0.188,0.31,0.47
"Cc1c2c(nn1C)CSCc1cc(n(C)n1)CSc1cc(c3ccccc3c1)OCCCc1c(C(=O)O)n(C)c3c-2c(Cl)ccc13 [AZD5991] + Cc1cc2ncnn2cc1Nc1ncc2c(n1)n(C1CCOCC1)c(=O)n2C [AZD7648] (first compound max 1 µM, 7x7, partner max 10 µM)",0.719,0.421,0.619,0.219,0.468,0.221,0.865,0.342,0.344,0.282,0.179,0.487
"Cc1c2c(nn1C)CSCc1cc(n(C)n1)CSc1cc(c3ccccc3c1)OCCCc1c(C(=O)O)n(C)c3c-2c(Cl)ccc13 [AZD5991] + Cn1cnc2c(F)c(Nc3ccc(Br)cc3Cl)c(C(=O)NOCCO)cc21 [Selumetinib] (first compound max 1 µM, 7x7, partner max 3 µM)",0.91,0.903,0.374,0.253,0.872,0.23,1,0.497,0.22,0.164,0.387,0.47
"C[C@@H]1COCCN1c1cc(C2([S@](C)(=N)=O)CC2)nc(-c2ccnc3[nH]ccc23)n1 [AZD6738] + O=C(c1cc(Cc2n[nH]c(=O)c3ccccc23)ccc1F)N1CCN(C(=O)C2CC2)CC1 [Olaparib] (first compound max 10 µM, 7x7, partner max 10 µM)",0.61,0.369,0.624,0.263,0.908,0.643,0.908,0.441,0.529,0.821,0.391,0.834
"Cc1cc2ncnn2cc1Nc1ncc2c(n1)n(C1CCOCC1)c(=O)n2C [AZD7648] + C=CCn1c(=O)c2cnc(Nc3ccc(N4CCN(C)CC4)cc3)nc2n1-c1cccc(C(C)(C)O)n1 [AZD1775] (first compound max 10 µM, partner max 1 µM)",0.52,0.482,0.894,0.311,0.923,0.75,0.961,0.552,0.572,0.657,0.283,0.916
"Cc1cc2ncnn2cc1Nc1ncc2c(n1)n(C1CCOCC1)c(=O)n2C [AZD7648] + CCN(CCO)CCCOc1ccc2c(Nc3cc(CC(=O)Nc4cccc(F)c4)[nH]n3)ncnc2c1 [AZD2811] (first compound max 10 µM, 7x7, partner max 1 µM)",0.262,0.47,0.859,0.339,0.507,0.57,0.606,0.264,0.409,0.341,0.128,0.687
"Cc1cc2ncnn2cc1Nc1ncc2c(n1)n(C1CCOCC1)c(=O)n2C [AZD7648] + CN(C)CCCOc1ccc(-c2ccc3ncc4c(c3c2)n(C2CCOCC2)c(=O)n4C)cn1 [AZD0156] (first compound max 10 µM, 7x7, partner max 1 µM)",0.222,0.249,0.657,0.279,0.361,0.475,0.461,0.3,0.428,0.214,0.111,0.404
"Cc1cc2ncnn2cc1Nc1ncc2c(n1)n(C1CCOCC1)c(=O)n2C [AZD7648] + C[C@@H]1COCCN1C2=NC(=NC(=C2)C3(CC3)[S@](=N)(=O)C)C4=C5C=CNC5=NC=C4 [AZD6738] (first compound max 10 µM, 7x7, partner max 10 µM)",0.585,0.453,0.789,0.333,0.894,0.632,0.961,0.316,0.533,0.757,0.185,0.886
"Cc1cc2ncnn2cc1Nc1ncc2c(n1)n(C1CCOCC1)c(=O)n2C [AZD7648] + O=C(c1cc(Cc2n[nH]c(=O)c3ccccc23)ccc1F)N1CCN(C(=O)C2CC2)CC1 [Olaparib] (first compound max 10 µM, 7x7, partner max 10 µM)",0.219,0.152,0.628,0.158,0.22,0.637,0.365,0.18,0.281,0.158,0.0538,0.455
"COc1cccc2c1C(=O)c1c(O)c3c(c(O)c1C2=O)C[C@@](O)(C(=O)CO)C[C@@H]3O[C@H]1C[C@H](N)[C@H](O)[C@H](C)O1 [Doxorubicin] + Cc1cc2ncnn2cc1Nc1ncc2c(n1)n(C1CCOCC1)c(=O)n2C [AZD7648] (first compound max 1 µM, 7x7, partner max 10 µM)",0.958,0.697,0.975,0.496,0.867,0.826,0.966,0.29,0.82,0.873,0.32,0.975
"COc1cccc(OCCCN)c1-c1cc(Nc2cnc(C#N)cn2)n[nH]1 [Prexasertib] + C=CCn1c(=O)c2cnc(Nc3ccc(N4CCN(C)CC4)cc3)nc2n1-c1cccc(C(C)(C)O)n1 [AZD1775] (first compound max 1 µM, partner max 1 µM)",0.925,0.685,0.945,0.599,0.939,0.892,1,0.6,0.711,0.967,0.771,0.951
"COc1cccc(OCCCN)c1-c1cc(Nc2cnc(C#N)cn2)n[nH]1 [Prexasertib] + CN(C)CCCOc1ccc(-c2ccc3ncc4c(c3c2)n(C2CCOCC2)c(=O)n4C)cn1 [AZD0156] (first compound max 1 µM, 7x7, partner max 1 µM)",0.671,0.348,0.913,0.342,0.921,0.905,1,0.484,0.612,0.936,0.616,0.951
"COc1cccc(OCCCN)c1-c1cc(Nc2cnc(C#N)cn2)n[nH]1 [Prexasertib] + C[C@@H]1COCCN1C2=NC(=NC(=C2)C3(CC3)[S@](=N)(=O)C)C4=C5C=CNC5=NC=C4 [AZD6738] (first compound max 1 µM, 7x7, partner max 10 µM)",0.703,0.43,0.94,0.367,0.929,0.757,1,0.45,0.637,0.926,0.637,0.952
"COc1cccc(OCCCN)c1-c1cc(Nc2cnc(C#N)cn2)n[nH]1 [Prexasertib] + Cc1cc2ncnn2cc1Nc1ncc2c(n1)n(C1CCOCC1)c(=O)n2C [AZD7648] (first compound max 1 µM, 7x7, partner max 10 µM)",0.757,0.499,0.924,0.389,0.926,0.912,1,0.442,0.637,0.957,0.606,0.962
